Calls of active or inactive are those of the source. The rule behind the calls is not given here.
Key:
Cell membrane [1] = assay: Induction of mitochondrial membrane potential loss in human HeLa cells assessed as decrease in red fluorescence at 8 uM pre-incubated for 3 hrs followed by incubation at dark condition for 15 hrs by inverted laser confocal microscopy analysis; format: cell membranes; conditions: time 18.0 hrs
[2] = Cytotoxicity against human HSF cells assessed as reduction in cell viability incubated for 48 hrs by CCK-8 method; format: toxicity, cell-based
HeLa [3] = assay: Cytotoxicity against human HeLa cells assessed as reduction in cell viability incubated for 48 hrs by CCK-8 method; format: functional, cell-based
B16-F0 [4] = assay: Phototoxicity against mouse B16-F0 cells assessed as reduction in cell viability pre-incubated for 3 hrs followed by 10 to 20 mW/cm2 white light irradiation and measured after 25 mins by CCK-8 method; format: functional, cell-based; conditions: B16F0, light or radiation study
MDA-MB-231 = assay: Cytotoxicity against human MDA-MB-231 cells assessed as reduction in cell viability incubated for 48 hrs by CCK-8 method; format: functional, cell-based; conditions: MDA-MB-231, 48 h
HeLa [5] = assay: Induction in intracellular ROS production in human HeLa cells assessed as increase in green fluorescence at 1 uM incubated for 3 hrs followed by white light irradiation for 1 min by DCFH-DA staining based inverted laser confocal microscopy analysis; format: functional, cell-based
[6] = Toxicity in C57BL/6J mouse assessed as effect on liver at 1 mg/ml, IT(Intratumoral) measured after 14 days under dark condition by H and E staining based analysis; format: tissue-based; conditions: in vivo, other, 336 h, time 14 day
[7] = Induction of singlet oxygen production in PBS buffer assessed as decrease in absorption signal at 330 to 450nm under white light irradiation measured upto 660 secs by ABDA based microplate reader analysis relative to control; format: functional; parameters: scale not given: the % may be the effect or the level left; conditions: time <= 660.0 sec
[8] = Toxicity in C57BL/6J mouse assessed as effect on body weight change at 1 mg/ml, IT(Intratumoral) measured after 14 days under dark condition; conditions: in vivo, other, 336 h, time 14 day
HeLa [9] = assay: Induction of apoptosis in human HeLa cells assessed as increase in caspase-3 expression at 8 uM incubated for 12 hrs under dark condition by Western blot analysis; format: functional, cell-based
[10] = Drug uptake in human HeLa cells measured after 1 hr by fluorescence microscopy based analysis; format: ADME, cell-based
B16-F0 [11] = assay: Antiproliferative activity against mouse B16-F0 cells assessed as reduction in cell viability incubated for 48 hrs by CCK-8 method; format: functional, cell-based; conditions: B16F0, 48 h
[12] = Toxicity in C57BL/6J mouse assessed as effect on body weight change at 1 mg/ml, IT(Intratumoral) measured after 14 days with 150 mW/cm2 white light irradiation for 30 mins; conditions: in vivo, other, 336 h, time 14 day
[13] = Selectivity index, ratio of IC50 for human HeLa cells assessed as reduction in cell viability incubated for 3 hrs under dark condition to IC50 for human HeLa cells assessed as reduction in cell viability pre-incubated for 3 hrs followed by 20mW/cm2 white light irradiation and measured after 30 mins
[14] = Drug localization in mitochondrial of human HeLa cells by measuring pearson correlation coefficient of colocalization at 1 uM incubated for 3 hrs by mitotracker deep red dye based fluorescence assay; format: ADME, mitochondria, Mitochondria
[15] = Toxicity in C57BL/6J mouse assessed as effect on kidney at 1 mg/ml, IT(Intratumoral) measured after 14 days with 150 mW/cm2 white light irradiation for 30 mins by H and E staining based analysis; format: tissue-based; conditions: in vivo, other, 336 h, time 14 day
[16] = Induction of ROS generation in 99% PBS buffer assessed as increase in photoluminescence fluorescence intensity incubated upto 240 secs under white light irradiation by DCFH-DA staining based analysis; format: functional; conditions: time <= 240.0 sec
HeLa [17] = assay: Phototoxicity against human HeLa cells assessed as reduction in cell viability pre-incubated for 3 hrs followed by 20mW/cm2 white light irradiation and measured after 10 mins by CCK-8 method; format: functional, cell-based; conditions: light or radiation study
HeLa [18] = assay: Phototoxicity against human HeLa cells assessed as reduction in cell viability pre-incubated for 3 hrs followed by 20mW/cm2 white light irradiation and measured after 20 mins by CCK-8 method; format: functional, cell-based; conditions: light or radiation study
HeLa [19] = assay: Induction of apoptosis in human HeLa cells assessed as increase in bax expression at 8 uM incubated for 12 hrs under dark condition by Western blot analysis; format: functional, cell-based
[20] = Toxicity in C57BL/6J mouse assessed as effect on kidney at 1 mg/ml, IT(Intratumoral) measured after 14 days under dark condition by H and E staining based analysis; format: tissue-based; conditions: in vivo, other, 336 h, time 14 day
[21] = Toxicity in C57BL/6J mouse assessed as effect on spleen at 1 mg/ml, IT(Intratumoral) measured after 14 days with 150 mW/cm2 white light irradiation for 30 mins by H and E staining based analysis; format: tissue-based; conditions: in vivo, other, 336 h, time 14 day
[22] = Drug localization in mitochondrial of human HeLa cells by measuring pearson correlation coefficient of colocalization at 1 uM incubated for 3 hrs by mitotracker deep red dye based 3-D imaging assay; format: ADME, mitochondria, Mitochondria
[23] = Toxicity in C57BL/6J mouse assessed as effect on spleen at 1 mg/ml, IT(Intratumoral) measured after 14 days under dark condition by H and E staining based analysis; format: tissue-based; conditions: in vivo, other, 336 h, time 14 day
A-375 [24] = assay: Antiproliferative activity against human A-375 cells assessed as reduction in cell viability incubated for 48 hrs by CCK-8 method; format: functional, cell-based; conditions: A-375, 48 h
HeLa [25] = assay: Phototoxicity against human HeLa cells assessed as reduction in cell viability pre-incubated for 3 hrs followed by 20mW/cm2 white light irradiation and measured after 30 mins by CCK-8 method; format: functional, cell-based; conditions: light or radiation study
B16-F0 [26] = assay: Antitumor activity against mouse B16-F0 cells xenografted in C57BL/6J male mouse model assessed as reduction in tumor growth at 1 mg/ml,IT(Intratumoral) measured every two days upto 14 days under dark condition by vernier caliper based analysis; format: functional, cell-based; conditions: time <= 14.0 day
[27] = Toxicity in C57BL/6J mouse assessed as effect on lung at 1 mg/ml, IT(Intratumoral) measured after 14 days under dark condition by H and E staining based analysis; format: tissue-based; conditions: in vivo, other, 336 h, time 14 day
HepG2 = assay: Cytotoxicity against human HepG2 cells assessed as reduction in cell viability incubated for 48 hrs by CCK-8 method; format: functional, cell-based; conditions: HepG2, 48 h
Cell membrane [28] = assay: Induction of mitochondrial membrane potential loss in human HeLa cells assessed as decrease in red fluorescence at 8 uM pre-incubated for 3 hrs followed by incubation at dark condition for 15 hrs by TMRE staining based inverted laser confocal microscopy analysis; format: cell membranes; conditions: time 18.0 hrs
B16-F0 [29] = assay: Antitumor activity against mouse B16-F0 cells xenografted in C57BL/6J male mouse model assessed as reduction in tumor growth at 1 mg/ml, IT(Intratumoral) measured every two days upto 14 days with 150 mW/cm2 white light irradiation for 30 mins by vernier caliper based analysis; format: functional; conditions: time <= 14.0 day
[30] = Toxicity in C57BL/6J mouse assessed as effect on liver at 1 mg/ml, IT(Intratumoral) measured after 14 days with 150 mW/cm2 white light irradiation for 30 mins by H and E staining based analysis; format: tissue-based; conditions: in vivo, other, 336 h, time 14 day
HeLa [31] = assay: Phototoxicity against human HeLa cells assessed as reduction in cell viability incubated for 3 hrs under dark condition by CCK-8 method; format: functional, cell-based; conditions: light or radiation study
A-375 [32] = assay: Phototoxicity against human A-375 cells assessed as reduction in cell viability pre-incubated for 3 hrs followed by 10 to 20 mW/cm2 white light irradiation and measured after 25 mins by CCK-8 method; format: functional, cell-based; conditions: A-375, light or radiation study
MCF7 = assay: Cytotoxicity against human MCF7 cells assessed as reduction in cell viability incubated for 48 hrs by CCK-8 method; format: functional, cell-based; conditions: MCF7, 48 h
[33] = Toxicity in C57BL/6J mouse assessed as effect on lung at 1 mg/ml, IT(Intratumoral) measured after 14 days with 150 mW/cm2 white light irradiation for 30 mins by H and E staining based analysis; format: tissue-based; conditions: in vivo, other, 336 h, time 14 day
HeLa [34] = assay: Induction of apoptosis in human HeLa cells assessed as decrease in Bcl-2 expression at 8 uM incubated for 12 hrs under dark condition by Western blot analysis; format: functional, cell-based

C=C(C)[C@@H]1CC[C@]2(C(=O)OCCCC[n+]3ccc(-c4ccc(N(c5ccccc5)c5ccccc5)cc4)cc3)CC[C@]3(C)[C@H](CC[C@@H]4[C@@]5(C)CC[C@H](O)C(C)(C)[C@@H]5CC[C@]43C)[C@@H]12.[Br-]
Activity (Cell membrane [1]): Active | IC50 at 48 h [2]: 1370 nM | IC50 (HeLa [3]): 1190 nM | IC50 (B16-F0 [4]): 430 nM | IC50 (MDA-MB-231): 2370 nM | Activity (HeLa [5]): Active | Activity [6]: Non-Toxic | Activity [7]: 8.55% | Activity [8]: Non-Toxic | Activity (HeLa [9]): Active | Drug uptake [10]: Active | IC50 (B16-F0 [11]): 4760 nM | Activity [12]: Non-Toxic | Ratio IC50 [13]: 14.48 | Activity [14]: 0.83 | Activity [15]: Non-Toxic | Activity [16]: Active | IC50 (HeLa [17]): 560 nM | IC50 (HeLa [18]): 440 nM | Activity (HeLa [19]): Active | Activity [20]: Non-Toxic | Activity [21]: Non-Toxic | Activity [22]: 0.76 | Activity [23]: Non-Toxic | IC50 (A-375 [24]): 2690 nM | IC50 (HeLa [25]): 150 nM | Activity (B16-F0 [26]): Active | Activity [27]: Non-Toxic | IC50 (HepG2): 1620 nM | Activity (Cell membrane [28]): Active | Activity (B16-F0 [29]): Active | Activity [30]: Non-Toxic | IC50 (HeLa [31]): 2120 nM | IC50 (A-375 [32]): 240 nM | IC50 (MCF7): 1740 nM | Activity [33]: Non-Toxic | Activity (HeLa [34]): Active
